{"source": "patent US20160228575A1", "about": "“NARINGENIN COMPLEXES AND METHODS OF USE THEREOF” (THE GENERAL HOSPITAL CORPORATION, priority 2008, published 2016)", "key": {"[1]": {"test_system": "HCV (JFH-1) secreted by infected Huh-7.5.1 cells", "assay": "HCV secretion by JFH-1 infected Huh-7.5.1 cells (HCV core antigen ELISA, HCV positive strand RNA qPCR)", "format": "cell-based, Hepatitis C virus", "description": "(§1) The Huh-7.5.1 human hepatoma cell line and a plasmid containing the JFH-1 genome were kindly provided by Dr. Chisari (Scripps Research Institute, CA) and Dr. Wakita (National Institute of Infectious Diseases, Tokyo) respectively. Huh-7.5.1 cells were cultured in DMEM medium supplemented with 10% FBS, 200 units/ml penicillin and […] streptomycin in a 5% CO2-humidified incubator at 37° C. In vitro transcribed genomic JFH-1 RNA was delivered to cells by liposome-mediated transfection as described by Zhong et al. (2005)(8). Infected Huh-7.5.1 cells were passaged every 3 days and used at passage <15. The presence of HCV in these cells and corresponding supernatants were determined by quantitative Polymerase Chain Reaction (qPCR) and immunofluorescence staining. Primary human hepatocytes were purchased from BD Biosciences (San Jose, Calif.) cultured on a collagen-coated 12 well plate in C+H culture media composed of DMEM supplemented with 10% heat-inactivated FBS, 200 U/mL penicillin/streptomycin, 7.5 μg/mL hydrocortisone, 20 ng/mL EGF, 14 ng/mL glucagons and 0.5 U/mL insulin. The media was supplemented with 2% DMSO for long-term culture of the primary cells.\n(§2) HCV-infected Huh-7.5.1 cells were plated on a 6-well plate at a density of 1×10^5 cells/cm^2 and cultured overnight in standard medium. Prior to the beginning of the experiment, the cells were washed 3 times with PBS and cultured with DMEM containing 5% lipoprotein-free FBS. Oleate, Insulin, Naringenin, and Brefeldin A were added at this time as described in the text. Following 24 hours of incubation, the plate was gently agitated to release mechanically bound particles, the media was collected, filtered to remove cellular debris, and stored at −80° C. for further analysis. The attached cells were washed 3 times with PBS, harvested, pelleted and stored at −80° C. for further analysis.\nHuh-7.5.1 secreted HCV core antigen was detected in the media using Wako Chemicals (Cambridge, Mass.) ORTHO HCV antigen ELISA kit. Media was used as is, and the assay was carried out according to manufacturer's directions.\n(§3) Virus samples collected in each experiment were filtered with a 0.45 μm filter and a volume of 100 μL for each sample was heated at 95° C. for 45 min. The reverse transcription reaction step was performed on a Mastercycler epgrdientS (Eppendorf) instrument using Omniscript and Sensiscript RT Kits (Qiagen). Real time PCR was performed on a Light Cycler LC-24 (Idaho Technology), using SuperScript™ III Platinum® CellsDirect Two-Step qRT-PCR Kits (Invitrogen) for quantitative PCR. For reverse transcription step, 2 μL of sample without RNA extraction were used. For real time PCR, 1 μL of the reverse transcription reactions was used. All reactions were performed according to the manufacturer's instructions using the primers detailed in Table 1.\nHowever, this experiment was carried out on cells continuously producing the virus. Long-term treatment could potentially have a greater effect. […] This treatment is compared to the current standard-of-care, 1000 i.u. of Interferon α (IFNα). Both treatments lowered HCV RNA to a similar level, 96±5% and 93±5% respectively."}, "ApoB [2]": {"test_system": "ApoB", "assay": "ApoB secretion by JFH-1 infected Huh-7.5.1 cells (human ApoB ELISA)", "format": "cell-based", "settings": "24 hours, brefeldin A 2.5 μg/ml", "description": "as §2\nHuh-7.5.1 and primary human hepatocytes secreted ApoB was detected in the media using ALerCHEK, Inc (Portland, Me.) total human ApoB ELISA kit. Media was diluted 1:10 with the specimen diluent, and the assay was carried out according to manufacturer's directions.\nHCV-infected Huh-7.5.1 cells were plated T-25 tissue culture flasks at a density of 1×10^5 cells/cm^2 and cultured overnight in standard medium. Prior to silencing, the cells were washed 3 times with PBS and media was replaced with OptiMEM basal medium. SureSilencing shRNA (GFP) plasmids against human ApoB100 as well as shRNA plasmid control (500 ng/ml) were combined with lipofectamine 2000 in OptiMEM and incubated with the cells overnight. SureSilencing shRNA plasmids code for GFP which was used to sort the transfected Huh7.5.1 cells, using FACSAria (BD Biosciences) located at the Partners AIDS Research Center. Transfected cells (10% of the total population) were sorted directly into a 12-well plate and allowed to adhere overnight. Culture media was conditioned by the transfected cells for 24 hours and analyzed as described above."}, "ApoB [3]": {"test_system": "ApoB", "assay": "ApoB secretion by primary human hepatocytes (human ApoB ELISA)", "format": "cell-based", "settings": "200 μM naringenin, 24 hours", "description": "as §1, with “The media was supplemented with 2% DMSO for long-term culture of the primary cells.” left out\nHuh-7.5.1 and primary human hepatocytes secreted ApoB was detected in the media using ALerCHEK, Inc (Portland, Me.) total human ApoB ELISA kit. […]\nTo assess the potential of naringenin-based treatment, we measured ApoB secretion in primary human hepatocytes following 24 hours stimulation with naringenin. […]"}, "PPARα": {"test_system": "PPARα", "assay": "PPARα transcription in infected Huh7.5.1 cells", "format": "cell-based, human", "settings": "short term 24 hours stimulation of Huh7.5.1 cells", "description": "as §3\nPPARα and LXRα are ligand-activated transcription factors which control much of the fasted-to-fed transition and were previously shown to be important in the development of inflammation and insulin resistance. […] Following a short term 24 hours stimulation of Huh7.5.1 cells PPARα transcription increased by 86%, while LXRα was decreased by 25%. PPARα is the target of fibrates and plays a major role in the downregulation of inflammation, increasing sensitivity to insulin, and modulating dyslipidemia."}, "MTP": {"test_system": "MTP", "assay": "MTP mRNA level by qPCR in infected Huh7.5.1 cells", "format": "cell-based, human", "settings": "naringenin 24 hours"}, "ACAT1": {"test_system": "ACAT1", "assay": "ACAT1 mRNA level by qPCR in infected Huh7.5.1 cells", "format": "cell-based, human", "settings": "naringenin 24 hours"}, "[4]": {"test_system": "HCV (JFH-1) in Huh-7.5.1 cells", "assay": "Intracellular HCV RNA and core protein in infected Huh-7.5.1 cells", "format": "cell-based, Hepatitis C virus", "description": "as §2, §3\nHuh-7.5.1 cells were washed 3 times with PBS and fixed in 4% EM-grade paraformaldehyde for 10 minutes at room temperature. Slides were then washed with PBS and incubated in 100 mmol/L glycine for 15 minutes to saturate reactive groups. Samples were permeabilized for 15 minutes with 0.1% Triton X-100, blocked for 30 minutes with 1% bovine serum albumin and 5% donkey serum at room temperature, and stained with primary antibodies overnight at 4° C. After additional washes with PBS, samples were stained with fluorescently tagged secondary antibodies for 45 minutes at room temperature."}, "[5]": {"settings": "oral; cited from earlier work"}, "S-180 sarcoma cell line": {"test_system": "S-180 sarcoma cell line", "settings": "intraperitoneal or peroral injection once a day for 5 days, mice, cited from earlier work"}, "[6]": {"settings": "rats, intraperitoneal injection; cited from earlier work"}, "[7]": {"settings": "24 hours, brefeldin A 2.5 μg/ml"}}, "note": "Entries after “also recorded” stand apart in the source; their conditions may differ. Read-outs that look alike come from different tables or passages of the source."}
{"smiles": "O=C1C[C@@H](c2ccc(O)cc2)Oc2cc(O)cc(O)c21", "note": "[naringenin]", "values": [{"measurement": "effective dose of naringenin in cell culture", "setting": "[1]", "result": 0.20, "unit": "mM"}, {"measurement": "HCV core protein secretion (in words)", "setting": "[1]; [7]", "result": "inhibits"}, {"measurement": "HCV positive strand RNA secretion (in words)", "setting": "[1]; [7]", "result": "inhibits"}, {"measurement": "inhibition at 200 µM", "setting": "[1]; Hepatitis C virus, 200 μM naringenin, short-term (24 hrs), infected Huh-7.5.1 cells", "result": 80, "unit": "%"}, {"measurement": "inhibition of HCV (RNA) secretion, long-term treatment", "setting": "[1]; long-term daily treatment of infected Huh7.5.1 cells, naringenin 200 μM, IFNα 1000 i.u.", "result": "96±5", "unit": "%"}, {"measurement": "ApoB secretion (in words)", "setting": "ApoB [2]", "result": "Inhibition"}, {"measurement": "decrease in ApoB secretion", "setting": "ApoB [3]", "result": "60%±7%"}, {"measurement": "increase of PPARα transcription", "setting": "PPARα", "result": 86, "unit": "%"}, {"measurement": "MTP mRNA level", "setting": "MTP", "result": "remained unchanged"}, {"measurement": "ACAT1 mRNA level", "setting": "ACAT1", "result": "remained unchanged"}, {"measurement": "intracellular HCV core protein expression", "setting": "[4]; 24 hours stimulation", "result": "remained unchanged"}, {"measurement": "intracellular levels of HCV (positive strand) RNA", "setting": "[4]; 24 hours stimulation", "result": "remains unchanged"}, {"measurement": "HCV replication (intracellular HCV RNA), long-term treatment", "setting": "[4]; long-term treatment, naringenin 200 μM, IFNα 1000 i.u.", "result": "didn't appear to effect; also recorded: remained unchanged"}, {"measurement": "absorbance through the intestinal wall (intestinal absorption)", "setting": "[5]", "result": "about 6%"}, {"measurement": "tumor growth of S-180 sarcoma", "setting": "S-180 sarcoma cell line", "result": "significantly inhibit"}, {"measurement": "tumor growth of S-180 sarcoma", "setting": "S-180 sarcoma cell line; listed as Naringenin", "result": "significantly inhibits"}, {"measurement": "LD50 (50% kill)", "setting": "[6]", "result": 2000, "unit": "mg/kg"}]}
